This assay concerns T47D breast cancer cells. Briefly: Alamar Blue viability of T47D cells with or without UV triggered release. Type of assay: cell-based. The settings on record: 48 hours, free nZnO 16.3 μg/mL, free PTX 40 nM. The protocol: Both cell lines were cultured in log phase using RPMI 1640 media supplemented with 10% fetal bovine serum (FBS), 1% penicillin/streptomycin, 2 mM L-glutamine, and for T47D cells, 0.2 Units/mL of bovine insulin per American Type Culture Collection (ATCC) recommendations.
For viability assessments, both Jurkat and T47D cells were cultured following ATCC recommendations noted above. For the Jurkat T cell line, the cells were first washed with PPH free RPMI 1640 and then seeded at a concentration of 2.5×10^5 cells/mL using the same media in a 96 well plate. For T47D cells, the cells were first seeded in the culture media at 1.0×10^5 cells/well in a 24 well plate the day prior to treatment to allow for cell attachment. The media was then gently aspirated and replaced with the PPH free RPMI 1640 media prior to NP treatment. […]
Once treated with NPs, the cells were then cultured for 48 hours at 37° C. and 5% CO2. […] After optimizing the UV irradiation protocol, required UV exposure was determined to be 3 minutes for Jurkat cells and 2 minutes for T47D cells to re-establish the toxicity of the nZnO while minimizing effects to the cellular viability. Cell viability was assessed using the Alamar Blue metabolic assay. […] The fluorescence intensity measurements were performed using a Biotek Synergy MX plate reader using an excitation/emission of 530/590 nm.
On the technique in general: Resazurin is reduced to fluorescent resorufin, in cell work by metabolically active cells.

As for `CC(=O)O[C@H]1C(=O)[C@@]2(C)[C@H]([C@H](OC(=O)c3ccccc3)[C@]3(O)C[C@H](OC(=O)[C@H](O)[C@@H](NC(=O)c4ccccc4)c4ccccc4)C(C)=C1C3(C)C)[C@]1(OC(C)=O)CO[C@@H]1C[C@@H]2O` [PTX, Paclitaxel], the “effect of free (non-encapsulated) controls on viability” value was “somewhat similar effect as the non-triggered release Enc-nZnO/PTX group”.
